Test results as given in patent publication US20260317367A1, “SALTS INCLUDING CRYSTALLINE SALTS OF 25-HYDROXY-CHOLEST-5-EN-3-SULFATE AND METHODS FOR PREPARING SAME” (Durect Corporation, priority 2022, published 2026).
Structures can show the parent of a compound that is named as a salt. One block for each compound: values may come before it.

Tests used:
Type in all cases: physicochemical
[1] = Final pH of the solubility sample solutions in aqueous media; details: for pH of the solubility sample, 0.9% Sodium Chloride: 0.9% sodium chloride (blank 5.8); for pH of the solubility sample, 5% Dextrose: 5% dextrose (blank 4.7); for pH of the solubility sample, FaSSGF: FaSSGF (blank 1.5, 1.6); for pH of the solubility sample, FaSSIF: FaSSIF (blank 6.5, 6.5); for pH of the solubility sample, FeSSIF: FeSSIF (blank 4.9, 5.0); for pH of the solubility sample, Water: water (blank 6.3)
Method: 25HC3S salts were weighed in 8 mL or 4 mL glass vials with Teflon coated screw caps. Aliquots of each solvent were added to each sample and vortexed for about one minute until excess solid remained. Samples were placed on shaker at room temperature with 210 motion per minute shaking.
After one day, samples were pulled and checked if excess solid was present. About 1.5 mL aliquot of each sample was centrifuged at 12000 rpm for 12 to 15 minutes. […] Aliquots of the top clear solution of each centrifuged sample in MeOH, EtOH, IPA and ACN were diluted with diluent (water:MeOH 95:5) and assayed by HPLC. Samples of the salts in aqueous media were assayed by HPLC without dilution.
5.1 Solubility of 25HC3S Salts in Aqueous Media

[2] = Angle of repose of 25HC3S salts; details: for Flow Property per USP<1174> Powder Flow: classification by angle of repose
Method: Angle of repose is measured as follows. Powder is poured from a funnel onto a flat surface until a cone of powder is created. The angle of repose is calculated according to the following equation: […]
Table C1, from USP<1174> Powder Flow, describes the powder flow properties correlating to the angles of repose.
The lower the angle of repose, the more flowable is a material. Powder with an angle of repose between 25° to 30° will show excellent flow through a hopper, feed frame, die table and die bore smoothly. From 41° to greater than 66°, you may experience powder flow difficulties like rat-holing or bridging within the hopper.
The angle of repose was determined by pouring approximately 2 grams of a 25HC3S salt through a 7 mm inner diameter plastic tube into the center of a 21.14 mm diameter rubber O-ring, resulting in the formation of a powder cone of fixed diameter. The height of the cone was estimated with calipers.

[3] = Dynamic vapor sorption (DVS), hygroscopicity; details: DVS
[4] = Thermogravimetric analysis (TGA), weight loss
Method: (§1) Differential scanning calorimetry (DSC) is a thermoanalytical technique where the difference in the amount of heat required to increase the temperature of a sample and reference is measured as a function of temperature. Using this technique, phase transitions of a sample can be measured such as melting point. Decomposition can also be observed by DSC as can dehydration events. In the context of DSC measurements, there is also variability and the term “about” means ±1° C., and such variability is to be understood whether a DSC measurement is prefaced by “about” or not unless specified otherwise. Exemplary methods for collecting DSC data are set forth in Example 21. Thermogravimetric analysis, sometimes referred to as, thermal gravimetric analysis (TGA) is a thermal method of thermal analysis where the mass of a sample is measured as a function of time as the sample temperature changes. For example, when samples disclosed herein are heated and a loss in mass is measured prior to decomposition, this is likely indicative of the loss of water from the sample and may indicate that the sample being heated is a hydrate. Exemplary methods for collecting TGA are set forth in Example 23.
TG analysis was performed using a Mettler-Toledo TGA/DSC3 analyzer. Temperature and enthalpy adjustments were performed using indium, tin, and zinc, and then verified with indium. The balance was verified with calcium oxalate. The sample was placed in an open aluminum pan. The pan was hermetically sealed, the lid pierced, then inserted into the TG furnace. A weighed aluminum pan configured as the sample pan was placed on the reference platform. The furnace was heated under nitrogen. Each sample was heated from ambient temperature to 350° C. at 10° C./min. Although thermograms are plotted by reference temperature (x-axis), results are reported according to sample temperatures.

[5] = Differential scanning calorimetry (DSC), thermal decomposition / endothermic transition; details: indicative of thermal degradation or solid-state transformation
Method: as §1
DSC was performed using a Mettler-Toledo DSC3+ differential scanning calorimeter. A tau lag adjustment is performed with indium, tin, and zinc. The temperature and enthalpy are adjusted with octane, phenyl salicylate, indium, tin and zinc. The adjustment is then verified with octane, phenyl salicylate, indium, tin, and zinc. The sample was placed into a hermetically sealed aluminum DSC pan, and the weight was accurately recorded. The pan was then inserted into the DSC cell. A weighed aluminum pan configured as the sample pan was placed on the reference side of the cell. The pan lid was pierced prior to sample analysis. Samples were analyzed from 30° C. to 350° C. or 30° C. to 250° C., both at 10° C./min.

[6] = listed as 25HC3S t-butylammonium
[7] = listed as 25HC3S diethanolamine

pH of the solubility sample, 0.9% Sodium Chloride [1, 6]: 8.4 | pH of the solubility sample, 5% Dextrose [1, 6]: 7.2 | pH of the solubility sample, FaSSGF [1]: 1.6 | pH of the solubility sample, FaSSIF [1, 6]: 6.5 | pH of the solubility sample, FeSSIF [1]: 5.0 | pH of the solubility sample, Water [1, 6]: 8.5 | Flow Property per USP<1174> Powder Flow [2, 6]: Poor - must agitate, | Angle of Repose [2, 6]: 46.3 degrees | Angle of Repose, Rounded Whole Number [2, 6]: 46 degrees | Water uptake (weight gain) up to about 95% relative humidity ([3]; 5% to about 95% RH, listed as crystalline 25HC3S t-butylammonium): less than 0.5% | Reversibility of water uptake (in words) ([3]; RH reduced from 95% to 5%, listed as crystalline 25HC3S t-butylammonium): reversibly lose all that water | Hygroscopicity (in words) ([3]; listed as crystalline 25HC3S t-butylammonium): low hygroscopicity | Weight loss by TGA up to 200° C. ([4]; up to 200° C., listed as crystalline 25HC3S t-butylammonium): 0.2% | First significant endothermic transition (DSC) ([5]; listed as t-butylammonium): ~201 °C
SMILES: CC(CCCC(C)(C)O)C1CCC2C3CC=C4CC(OS(=O)(=O)O)CCC4(C)C3CCC12C (centres unmarked) [Salt #12]

pH of the solubility sample, 0.9% Sodium Chloride [1, 7]: 7.9 | pH of the solubility sample, 5% Dextrose [1, 7]: 7.2 | pH of the solubility sample, FaSSGF [1]: 1.6 | pH of the solubility sample, FaSSIF [1, 7]: 6.5 | pH of the solubility sample, FeSSIF [1, 7]: 4.9 | pH of the solubility sample, Water [1, 7]: 8.2 | Flow Property per USP<1174> Powder Flow [2, 7]: Passable - may hang up | Angle of Repose [2, 7]: 49.2 degrees | Angle of Repose, Rounded Whole Number [2, 7]: 49 degrees | Relative humidity above which the salt is hygroscopic [3]: above 75 % relative humidity | Weight loss by TGA up to 175° C. (in words) ([4]; up to 175° C.): Negligible weight loss | First significant endothermic transition (DSC) ([5]; listed as diethanolamine): ~181 °C
SMILES: CC(CCCC(C)(C)O)C1CCC2C3CC=C4CC(OS(=O)(=O)O)CCC4(C)C3CCC12C (centres unmarked) [Salt #10]
